Measurements published in US6596772B1, “Phosphate mimics and methods of treatment using phosphatase inhibitors” (Sugen, Inc., priority 1999, dated 2003).
Read-outs that look alike come from different tables or passages of the source.

Key:
Assay in all cases: PTP IC50 assay, pNPP or FDP as substrate
Format in all cases: biochemical
PTP EPSILON = target: T1, PTP EPSILON (Homo sapiens, UniProt P23469)
T1 construct: made in house; host or cells: Sf-9 insect cells (pFastBac-G2T); a pGEX 6P-1 construct also existed
Method: (§1) The following in vitro assay procedure is preferred to determine the level of activity and effect of the different compounds of the present invention on one or more of the PTPs. Similar assays can be designed along the same lines for any PTP using techniques well known in the art.
(§2) The catalytic assays described herein are performed in a 96-well format. The general procedure begins with the determination of PTP optimal pH using a three-component buffer system that minimizes ionic strength variations across a wide range of buffer pH. Next, the Michaelis-Menten constant, or Km, is determined for each specific substrate-PTP system. This Km value is subsequently used as the substrate reaction concentration for compound screening. Finally, the test PTP is exposed to varying concentrations of compound for fifteen minutes and allowed to react with substrate for ten minutes. The results are plotted as percent inhibition versus compound concentration and the IC50 interpolated from the plot.
(§3) All assays were performed using pNPP or FDP as substrate. The optimum pH was determined for each PTP used.
(§4) PTPase activity was assayed at 25° C. in a 100-μl reaction mixture containing an appropriate concentration of pNPP or FDP as substrate. The reaction was initiated by addition of the PTP and quenched after 10 min by addition of 50 μl of IN NaOH. The non-enzymatic hydrolysis of the substrate was corrected by measuring the control without the addition of the enzyme. The amount of p-nitrophenol produced was determined from the absorbance at 410 nm. To determine the kinetic parameter, Km, the initial velocities were measured at various substrate concentrations and the data were fitted to the Michaelis equation where velocity=(Vmax*[S])/(Km+[S]), and [S]=substrate reaction concentration.
(§5) The effect of the compounds on PTP was evaluated at 25° C. using pNPP or FDP as substrate. PTP was pre-incubated for fifteen minutes with various concentrations of compound. Substrate was then added at a fixed concentration (usually equal to the Km previously calculated). After 10 minutes, NaOH was added to stop the reaction. The hydrolysis of pNPP was followed at 410 nm on the Biotek Powerwave 200 microplate scanning spectrophotometer. The percent inhibition was calculated as follows: Percent Inhibition=[(control signal−compound signal)/control signal] ×100%. The IC50 was then determined by interpolation of a percent inhibition versus compound concentration plot.
(§6) Plasmids designed for bacterial GST-PTP fusion protein expression were derived by insertion of PCR-generated human PTP fragments into pGEX vectors (Pharmacia Biotech). Several of these constructs were then used to subclone phosphatases into pFastBac-1for expression in Sf-9 insect cells. Oligonucleotides used for the initial amplification of PTP genes are shown below. The cDNAs were prepared using the Gilbo BRL superscript preamplification system on RNAs purchased from Clontech.
The PTPepsilon cDNA was amplified from human placenta single-strand cDNA (Clontech RNA) using the following oligonucleotides: 5′oligo: 5′-[…]-3′ (SEQ ID NO: 6) 3′oligo: 5′-[…]-3′ (SEQ ID NO: 7) After cloning this PCR product into the Bam HI/Xho I sites of pGEX 6P-1, this phosphatase was subcloned using the same restriction sites in pFastBac-G2T.

PTP MEG2 = target: T2, PTP MEG2 (Homo sapiens, UniProt P43378)
T2 construct: made in house; host or cells: E. coli BL-21 (pGEX 6P-1)
T2 sequence (P43378 262-593 limits assumed): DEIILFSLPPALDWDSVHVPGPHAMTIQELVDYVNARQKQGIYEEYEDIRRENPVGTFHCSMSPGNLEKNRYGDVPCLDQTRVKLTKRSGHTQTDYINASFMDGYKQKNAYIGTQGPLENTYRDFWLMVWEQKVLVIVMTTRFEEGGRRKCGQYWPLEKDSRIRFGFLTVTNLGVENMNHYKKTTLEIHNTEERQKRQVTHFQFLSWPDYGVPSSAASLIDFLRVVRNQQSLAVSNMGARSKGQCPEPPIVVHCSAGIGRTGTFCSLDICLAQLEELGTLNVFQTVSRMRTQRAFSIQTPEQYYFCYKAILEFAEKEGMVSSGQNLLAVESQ
Method: as §1, §2, §3, §4, §5, §6
The PTP MEG2 cDNA was amplified from human placenta single strand cDNA (Clontech RNA) using the following oligonucleotides: 5′oligo: 5′-[…]-3′ (SEQ ID NO: 8) 3′oligo: 5′-[…]-3′ (SEQ ID NO: 9) and subsequently ligated into pGex 6P-1 Eco RI/Xho I sites.

PTP 1B = target: T3, PTP 1B (Homo sapiens, UniProt P18031)
T3 construct: made in house; host or cells: Sf-9 insect cells (pFastBac-G2T)
T3 sequence (P18031 1-435): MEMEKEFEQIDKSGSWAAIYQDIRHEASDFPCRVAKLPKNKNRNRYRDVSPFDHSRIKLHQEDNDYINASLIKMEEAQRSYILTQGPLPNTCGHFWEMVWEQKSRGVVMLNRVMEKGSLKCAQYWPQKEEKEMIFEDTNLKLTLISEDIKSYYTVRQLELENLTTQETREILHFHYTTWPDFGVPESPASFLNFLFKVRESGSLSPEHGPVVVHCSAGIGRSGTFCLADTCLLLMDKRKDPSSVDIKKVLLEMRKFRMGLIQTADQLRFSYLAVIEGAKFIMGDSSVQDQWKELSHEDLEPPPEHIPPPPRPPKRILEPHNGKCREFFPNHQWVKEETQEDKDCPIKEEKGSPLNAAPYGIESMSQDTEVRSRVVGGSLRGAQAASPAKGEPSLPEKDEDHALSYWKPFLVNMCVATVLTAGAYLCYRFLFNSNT
Method: as §1, §2, §3, §4, §5, §6
The PTP1b cDNA was amplified from human placenta single strand cDNA (Clontech RNA) using the following oligonucleotides: 5′oligo: 5′-[…] (SEQ ID NO: 4) 3′oligo: 5′-[…] (SEQ ID NO: 5) It was subsequently ligated into pFasBac G2TBamH1Xba-1 sites.

PTP ALPHA = target: T4, PTP ALPHA (Homo sapiens, UniProt P18433); conditions: 25° C.
T4 construct: RTPα intracellular domain construct was obtained; made in house; host or cells: E. coli BL-21 (pGEX 3X)
Method: as §1, §2, §3, §4, §5, §6
RTPα intracellular domain construct was obtained, Schlessinger et al., U.S. Pat. No. 5,888,794, the contents of which are hereby incorporated in their entirety into the present application. The RTPα fragment was cloned into pGEX 3× using the following procedure. The portion from EclX I/Xma III/Eag I (N-terminus blunted by Klenow) to Eco RV was cloned into the Sma I site. The EclX I site is approximately 15 residues downstream of the transmembrane domain.

[1] = pNPP or FDP as substrate, 25° C., read-out: PTP IC50 Epilson
[2] = pNPP or FDP as substrate, 25° C., read-out: PTP IC50 MEG2
[3] = pNPP or FDP as substrate, 25° C., read-out: PTP IC50 1B
[4] = comparison of R groups, read-out: IC50 Epsilon
[5] = comparison of R groups, read-out: IC50 MEG2
[6] = comparison of R groups, read-out: IC50 1B

T1 sequence (P23469 80-393 limits assumed): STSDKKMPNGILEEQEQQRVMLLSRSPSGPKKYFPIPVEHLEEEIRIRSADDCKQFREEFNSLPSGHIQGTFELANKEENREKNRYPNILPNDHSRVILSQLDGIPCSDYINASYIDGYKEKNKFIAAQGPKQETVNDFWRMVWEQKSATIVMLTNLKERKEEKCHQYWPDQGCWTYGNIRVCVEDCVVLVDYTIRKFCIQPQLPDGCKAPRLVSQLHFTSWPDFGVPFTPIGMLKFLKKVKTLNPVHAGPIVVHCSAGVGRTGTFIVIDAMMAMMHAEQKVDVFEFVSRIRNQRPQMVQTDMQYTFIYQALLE

| Molecule | IC50 (PTP EPSILON; [1]) | IC50 (PTP MEG2; [2]) | IC50 (PTP 1B; [3]) | IC50 (PTP EPSILON; [4]) | IC50 (PTP MEG2; [5]) | IC50 (PTP 1B; [6]) | IC50 (PTP ALPHA) |
| --- | --- | --- | --- | --- | --- | --- | --- |
| 1-(4-Aminophenoxy)-4-trifluoromethylsulfonamidophenoxy benzene [Example 72] | 48.3 µM | > 100 µM | 28.2 µM |  |  |  |  |
| O=[N+]([O-])c1cc(S(=O)(=O)C(F)(F)F)ccc1OC1CCC(Oc2ccc(S(=O)(=O)C(F)(F)F)cc2[N+](=O)[O-])C1 (mixture of isomers) [Example 12, 1,3-Bis-(2-nitro-4-trifluoromethanesulfonyl-phenoxy)-cyclopentane] | > 100 µM | > 100 µM | > 100 µM |  |  |  |  |
| CS(=O)(=O)Nc1ccc(Oc2ccc(Oc3ccc(NS(C)(=O)=O)cc3)cc2)cc1 [CH3SO2NH—] |  |  |  | 51.4 µM | > 100 µM | 51.9 µM |  |
| O=S(=O)(c1ccc(COCc2ccc(S(=O)(=O)C(F)(F)F)cc2)cc1)C(F)(F)F [Example 1, Bis (4-trifluoromethylsulfonylbenzyl) ether] | 24.3 µM | 55 µM | > 100 µM |  |  |  | > 100 µM |
| O=[N+]([O-])c1cc(S(=O)(=O)C(F)(F)F)ccc1SSc1ccc(S(=O)(=O)C(F)(F)F)cc1[N+](=O)[O-] [Example 8, Bis-(2-nitro-4-trifluoromethylsulfonylphenyl) disulfide] | 53.7 µM | > 100 µM | 46.8 µM |  |  |  |  |
| COC(=O)c1cc(Oc2ccc(S(=O)(=O)C(F)(F)F)cc2)cc(Oc2ccc(S(=O)(=O)C(F)(F)F)cc2)c1 [Example 9, 3,5-Bis-(4-trifluoromethanesulfonyl-phenoxy)-benzoic acid methyl ester] | > 100 µM | > 100 µM | > 100 µM |  |  |  |  |
| COC(=O)Cc1cc(Oc2ccc(S(=O)(=O)C(F)(F)F)cc2[N+](=O)[O-])cc(Oc2ccc(S(=O)(=O)C(F)(F)F)cc2[N+](=O)[O-])c1 [Example 10, [3,5-Bis-(2-nitro-4-trifluoromethanesulfonyl-phenoxy)-phenyl]-acetic acid methyl ester] | 60.8 µM | > 100 µM | > 100 µM |  |  |  |  |
| COC(=O)c1cc(Oc2ccc(S(=O)(=O)C(F)(F)F)cc2[N+](=O)[O-])cc(Oc2ccc(S(=O)(=O)C(F)(F)F)cc2[N+](=O)[O-])c1 [Example 11, 3,5-Bis-(2-nitro-4-trifluoromethanesulfonyl-phenoxy)-benzoic acid methyl ester] | 38.7 µM | > 100 µM | > 100 µM |  |  |  |  |
| COC(=O)c1c(Oc2ccc(S(=O)(=O)C(F)(F)F)cc2[N+](=O)[O-])cc(C)cc1Oc1ccc(S(=O)(=O)C(F)(F)F)cc1[N+](=O)[O-] [Example 13, 4-Methyl-2,6-bis-(2-nitro-4-trifluoromethanesulfonyl-phenoxy)-benzoic acid methyl ester] | 80.4 µM | > 100 µM | > 100 µM |  |  |  |  |
| COC(=O)c1ccc(OCCOc2ccc(S(=O)(=O)C(F)(F)F)cc2[N+](=O)[O-])cc1 [Example 14, 4-[2-(2-nitro-4-trifluoromethanesulfonyl-phenoxy)-ethoxy]-benzoic acid methyl ester] | > 100 µM | > 100 µM | > 100 µM |  |  |  |  |
| O=C(O)c1ccc(Oc2cccc(Oc3ccc(S(=O)(=O)C(F)(F)F)cc3[N+](=O)[O-])c2)cc1 [Example 15, 4-[3-(2-Nitro-4-trifluoromethanesulfonyl-phenoxy)-phenoxy]-benzoic acid] | 10 µM | 21.1 µM | 15.7 µM |  |  |  |  |
| COC(=O)c1cc(Oc2ccc(S(=O)(=O)C(F)(F)F)cc2[N+](=O)[O-])n(-c2cc(C(F)(F)F)cc(C(F)(F)F)c2)n1 [Example 16, 1-(3,5-Bis-trifluoromethyl-phenyl)-5-(2-nitro-4-trifluoromethanesulfonyl-phenoxy)-1H-pyrazole-3-carboxylic acid methyl ester] | 64.7 µM | 79.5 µM | > 100 µM |  |  |  |  |
| CCOC(=O)COc1ccc(S(=O)(=O)c2ccc(Oc3ccc(S(=O)(=O)C(F)(F)F)cc3[N+](=O)[O-])cc2)cc1 [Example 17, {4-[4-(2-Nitro-4-trifluoromethanesulfonyl-phenoxy)-benzenesulfonyl]-phenoxy}-acetic acid ethyl ester] | > 100 µM | 88.5 µM | > 100 µM |  |  |  |  |
| O=S(=O)(Nc1ccc(Oc2ccc(NS(=O)(=O)C(F)(F)F)cc2)cc1)C(F)(F)F [Example 73, Bis(4-trifluoromethylsulfonamidophenyl) ether] | 23.1 µM | > 100 µM | > 100 µM |  |  |  |  |
| O=S(=O)(Nc1ccc(Oc2cccc(Oc3ccc(NS(=O)(=O)C(F)(F)F)cc3)c2)cc1)C(F)(F)F [Example 74, 1,3-Bis(4-trifluoromethylsulfonamidophenoxy)benzene] | 1.8 µM | 58.7 µM | 7.7 µM |  |  |  |  |
| O=S(=O)(Nc1ccc(-c2nnc(-c3ccc(NS(=O)(=O)C(F)(F)F)cc3)o2)cc1)C(F)(F)F [Example 75, 2,5-Bis(4-trifluoromethylsulfonamidophenyl)-(1,3,4)oxadiazole] | 11.5 µM | 12.8 µM | 8.4 µM |  |  |  |  |
| CC(C)(c1ccc(NS(=O)(=O)C(F)(F)F)cc1)c1ccc(C(C)(C)c2ccc(NS(=O)(=O)C(F)(F)F)cc2)cc1 [Example 76] | 8.4 µM | 12.9 µM | 2.5 µM |  |  |  |  |
| Nc1ccc(Oc2ccc(Oc3ccc(N)cc3)cc2)cc1 [NH2] |  |  |  | > 100 µM | > 100 µM | > 100 µM |  |
